Source: paper PMC9166630, “SAR Probing of KX2-391 Provided Analogues With Juxtaposed Activity Profile Against Major Oncogenic Kinases” (Frontiers in Oncology, 2022)

What was measured:
[1] = system: Frk; assay: PamChip tyrosine kinase microarray, Frk; type: biochemical, human; conditions: 4e 0.1 µM, HL60 lysate
Method: (§1) The changes in kinase activities induced by treatment with 4e were monitored within the HL60 cell lines using PamGene’s (Hertogenbosch, Netherlands) PamChip® peptide microarray profiler, which quantifies the activities of 144 tyrosine kinases (YK) ([29], [30]) (Figure 7). Results are provided as a log fold change (LFC) heatmap and Mean Kinase Statistic. From the LFC it is apparent that compound 4e, at a concentration of 0.1 µM, induced sizable changes to the activity of several kinases within the cell signaling YK profile (Figure 7A).
(§2) An Upstream Kinase tool was used to generate a putative list of kinases responsible for phosphorylating the phospho-sites on the PamChip (Figure 7B) ([31]). It is an interpretation and is highly dependent on the contents of the underlying phosphorylation databases. A Kinase Score was used for ranking kinases based on their significance and specificity in terms of the set of peptides used for the corresponding kinase. Kinase Statistics indicates the overall change of the peptide set that represents the kinase. Kinase statistics value <0 indicates lower kinase activity in the compound spiked lysate and vice versa ([32], [33]). Table 5 lists the 20 most changed kinases within treated HL60 cell lysates by 0.1 μM 4e, ranked according to their Kinase Score.
The two multiple-kinase tests (PamChip and Phosphokinase Profiler) provided strong evidence of very minor involvement of Src in the cellular activities of 4e. However, the question must be raised about the effect of the 4e on other SRC family kinase (SFK). To address this point, we must highlight that both R&D phosphokinase profiler and PamChip feature Yes, Fgr, Lyn, Lck and Src while Fyn, Hck, Blk and Frk activities are tested in the PamChip only. The signals of SFKs in the R&D Phosphokinase Profiler were too weak to detect in both untreated (control) and 4e-treated HL60 cells. In PamChip assay, most of SFK’s were not ranked in the top 20 affected kinases (Table 5). In addition, their Specificity Score were very low (Table 6) indicating their marginal importance to the cell killing activities of 4e. Fgr kinase which ranked 7th in the list (Table 5) was the only SFK member that seems to be affected by the compound, albeit with low Specificity Score (1.03).
The compound 4e was spiked into HL60 cell lysate at different concentrations (0.001, 0.01, 0.1, 1, 10 and 50 μM). In addition, DMSO was also spiked in HL60 lysate at low concentration (2% v/v) as control. Samples were profiled on PamGene’s Tyrosine Kinase (PTK) arrays in technical replicates, covering a total of 196 phosphorylation sites. Frozen HL60 cultured cell pellet was sent to PamGene. […] Protein concentration was measured using standard Bradford assay as per PamGene SOPs. […]

[2] = target: T1, CYP3A4 (Homo sapiens, UniProt P08684); assay: Inhibition assay of human CYP450 enzymes, 3A4; type: in vitro ADME; conditions: for IC50: testosterone substrate; for no inhibition of CYP3A4 at concentrations up to: the values are: IC50
T1 construct: purchased Fisher Scientific; host or cells: insect cells (supersomes)
Method: (§3) The two compounds 4e and 4n were assessed for their ability to inhibit the three major human CYP450 enzymes, 3A4, 2D6 and 2C9. Assays were run in triplicate. Expressed enzymes in insect supersomes (Fisher Scientific, Waltham, MA) were used to minimize non-specific binding and membrane partitioning issues ([68]). The 3A4 assay uses testosterone as a substrate and analysis was performed by LC/MS/MS on a Waters Xevo TQ instrument as described above using positive electrospray ionization. Assay acceptance criteria was 20% for all standards and 25% for the LLOQ. The 2D6 and 2C9 assays use fluorescent substrates (3-[2-(N,N-diethylamino)ethyl]-7-methoxy-4-methylcoumarin for 2D6; 7-methoxy-4-(trifluoromethyl)coumarin for 2C9) and were analyzed on an Envision plate reader. GraphPad® Prism v 5.04 was used for nonlinear fitting of data to generate IC50 values.

[3] = system: Tyk2; assay: PamChip tyrosine kinase microarray, Tyk2; type: biochemical, human; conditions: 4e 0.1 µM, HL60 lysate
Method: as §1, §2
(§4) The compound 4e was spiked into HL60 cell lysate at different concentrations (0.001, 0.01, 0.1, 1, 10 and 50 μM). In addition, DMSO was also spiked in HL60 lysate at low concentration (2% v/v) as control. Samples were profiled on PamGene’s Tyrosine Kinase (PTK) arrays in technical replicates, covering a total of 196 phosphorylation sites. Frozen HL60 cultured cell pellet was sent to PamGene. At PamGene, cells were lysed using a lysis buffer and proteases inhibitors cocktail. Protein concentration was measured using standard Bradford assay as per PamGene SOPs. These lysates were further used for generating the PTK activity profiles. For spiking, 4e was received as powder form and dissolved in DMSO at PamGene facility followed by storing at -20°C in small aliquots. PamGene used its in-house bioinformatics toolbox in combination with other methods to generate hypotheses of signaling pathways.

[4] = target: T2, CYP2C9 (Homo sapiens, UniProt P11712); assay: Inhibition assay of human CYP450 enzymes, 2C9; type: in vitro ADME; conditions: for IC50: fluorescent substrate; for no inhibition of CYP2C9 at concentrations up to: the values are: IC50
T2 construct: purchased Fisher Scientific; host or cells: insect cells (supersomes)
Method: as §3

[5] = system: HL60 cells; assay: Cell cycle analysis (Hoechst 33342, flow cytometry); type: cell-based, human; conditions: HL60, 5 µM, 48 h
Method: The effect of 4e on the distribution of cells in different phases of the cell cycle was determined by flow cytometry using Hoescht 33342 staining in HL60 cells.
HL60 cells (3.5 x 10^5) were seeded in a 6-well plate, were treated with appropriate concentrations of the test compound after attachment, and were incubated at 37°C for 48 h. The treated cells were then collected and washed twice with ice-cold PBS (1X). The washed cells were fixed using 80% ice cold ethanol and stored at -20°C overnight. Fixed cells were washed twice with PBS before staining with 10 µg of Hoechst 33342 (10 µg/mL; Thermo Fisher Scientific, Inc.) and incubated in the dark for 30 min on ice. Cells were washed again with PBS wash and a minimum total of 20,000 events were collected and analyzed using a BD FACSAria III flow cytometer (BD Biosciences, USA). Flowlogic software version 7.0/7.2.1 (Inivai Technologies Pvt Ltd, Victoria, Australia) was used to obtain the percentage distribution of cells in G1, S, and G2/M phases in the singlet-gated population. For validation purpose, we included KX2-391 as a positive reference in this assay.

[6] = system: Etk/BMX; assay: PamChip tyrosine kinase microarray, Etk/BMX; type: biochemical, human; conditions: 4e 0.1 µM, HL60 lysate
Method: as §1, §2, §4

[7] = target: T3, EphA5 (Homo sapiens, UniProt P54756); assay: PamChip tyrosine kinase microarray, EphA5; type: biochemical; conditions: 4e 0.1 µM, HL60 lysate
T3 construct: endogenous in cells; host or cells: HL60 lysate
Method: as §1, §2, §4

[8] = system: HCT116 cell line; assay: MTT anti-proliferative assay, HCT116; type: cell-based, human; conditions: Homo sapiens, HCT-116, 72 h, maximum tested concentration 50 µM, read-out: IC50 ± SEM, HCT116
Method: The test compounds were evaluated for anti-proliferative activity using the MTT viability assay against HCT116 cell line. Cells were seeded in triplicate in 96-well plates at a density of 10x 10^3 cells/mL in a total volume of 200 µL per well. 0.1% of DMSO was used as a vehicle control. Each well was treated with 2 µL test compounds, which had been pre-prepared as stock solutions in […] to furnish the concentration range of study, 0.1 µM to 50 µM, and re-incubated for a further 72 h at 37°C in a humidified atmosphere containing 5% CO2. The culture medium was then removed, and the cells were washed with 100 µL PBS and 100 µL MTT was added, to reach a final concentration of 1 mg/mL MTT. Cells were incubated for 3 h in darkness at 37°C. After that, MTT solution was removed and MTT was solubilized by adding […] DMSO. The cells were maintained at room temperature in darkness for 20 min to ensure thorough color diffusion before reading the absorbance using a microplate reader at 570 nm. All experiments were conducted in triplicates. Results were expressed as percentage viability relative to vehicle control (100%). Dose response curves were plotted and IC50 values (concentration of drug resulting in 50% reduction in cell survival) were obtained using the commercial software package Prism (GraphPad Software, Inc., La Jolla, CA, USA).

T2 sequence (P11712 whole entry): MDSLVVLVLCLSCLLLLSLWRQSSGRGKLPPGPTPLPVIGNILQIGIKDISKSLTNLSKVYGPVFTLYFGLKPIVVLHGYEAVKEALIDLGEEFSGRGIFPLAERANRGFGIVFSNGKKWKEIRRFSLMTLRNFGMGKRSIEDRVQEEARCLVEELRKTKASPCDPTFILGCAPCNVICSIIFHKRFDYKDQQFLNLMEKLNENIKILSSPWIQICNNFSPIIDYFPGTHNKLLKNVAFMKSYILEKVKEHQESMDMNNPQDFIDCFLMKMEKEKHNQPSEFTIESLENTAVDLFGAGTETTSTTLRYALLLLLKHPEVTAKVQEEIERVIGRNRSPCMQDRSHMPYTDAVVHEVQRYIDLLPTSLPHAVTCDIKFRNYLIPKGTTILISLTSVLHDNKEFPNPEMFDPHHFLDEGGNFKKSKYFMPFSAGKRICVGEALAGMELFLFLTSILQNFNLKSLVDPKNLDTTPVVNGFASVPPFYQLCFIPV
T3 sequence (P54756 25-1037): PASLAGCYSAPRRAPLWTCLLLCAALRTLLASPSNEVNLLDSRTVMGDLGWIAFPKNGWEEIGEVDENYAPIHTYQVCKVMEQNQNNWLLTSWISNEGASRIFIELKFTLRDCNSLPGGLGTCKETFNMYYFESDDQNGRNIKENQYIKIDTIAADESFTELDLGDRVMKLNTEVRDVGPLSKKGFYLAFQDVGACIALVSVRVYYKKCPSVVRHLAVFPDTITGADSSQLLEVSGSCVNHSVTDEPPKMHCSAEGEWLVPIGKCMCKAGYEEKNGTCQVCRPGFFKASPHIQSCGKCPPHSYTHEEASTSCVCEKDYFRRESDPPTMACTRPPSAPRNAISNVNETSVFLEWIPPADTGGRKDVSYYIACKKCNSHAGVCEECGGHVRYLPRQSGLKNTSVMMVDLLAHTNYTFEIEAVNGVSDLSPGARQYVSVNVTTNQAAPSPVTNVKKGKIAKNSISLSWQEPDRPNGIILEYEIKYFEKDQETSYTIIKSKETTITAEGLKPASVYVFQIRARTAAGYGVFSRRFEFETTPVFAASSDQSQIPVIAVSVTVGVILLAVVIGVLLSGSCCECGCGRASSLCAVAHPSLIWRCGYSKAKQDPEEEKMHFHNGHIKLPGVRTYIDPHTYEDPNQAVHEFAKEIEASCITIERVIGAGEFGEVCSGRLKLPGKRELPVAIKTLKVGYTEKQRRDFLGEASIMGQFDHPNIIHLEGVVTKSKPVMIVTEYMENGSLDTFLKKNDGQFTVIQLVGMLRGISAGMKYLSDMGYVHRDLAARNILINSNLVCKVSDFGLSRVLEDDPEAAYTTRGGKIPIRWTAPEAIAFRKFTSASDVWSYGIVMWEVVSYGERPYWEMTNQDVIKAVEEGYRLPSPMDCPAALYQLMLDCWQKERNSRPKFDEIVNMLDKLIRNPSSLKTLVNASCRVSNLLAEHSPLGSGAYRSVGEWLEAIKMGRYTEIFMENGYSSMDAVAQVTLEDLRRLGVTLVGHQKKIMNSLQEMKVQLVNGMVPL
T1 sequence (P08684 whole entry): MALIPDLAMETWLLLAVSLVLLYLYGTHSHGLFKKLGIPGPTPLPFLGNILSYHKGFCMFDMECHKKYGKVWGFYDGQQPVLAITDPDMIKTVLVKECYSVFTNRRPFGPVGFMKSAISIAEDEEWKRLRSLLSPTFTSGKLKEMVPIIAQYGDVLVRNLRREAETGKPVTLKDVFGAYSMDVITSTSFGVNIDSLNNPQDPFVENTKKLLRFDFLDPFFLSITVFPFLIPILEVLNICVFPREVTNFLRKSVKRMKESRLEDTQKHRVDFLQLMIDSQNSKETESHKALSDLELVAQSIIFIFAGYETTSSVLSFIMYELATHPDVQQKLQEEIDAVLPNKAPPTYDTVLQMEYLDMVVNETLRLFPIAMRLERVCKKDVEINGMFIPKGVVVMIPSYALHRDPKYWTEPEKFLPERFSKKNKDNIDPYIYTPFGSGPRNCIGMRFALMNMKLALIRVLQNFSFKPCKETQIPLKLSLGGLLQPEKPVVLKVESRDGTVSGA

## O=C(Cc1ccc(NC(=O)c2cccc(Cl)c2)cc1)NCc1ccccc1 [Compound 4e, N-(4-(2-(benzylamino)-2-oxoethyl)phenyl)-3-chlorobenzamide]
[1]
  Mean Final Score: 1.6587
  Mean Kinase Statistic: -0.5116
  Mean Significance Score: 1.1484
  Mean Specificity Score: 0.5102
[2]
  IC50: > 10 µM
  no inhibition of CYP3A4 at concentrations up to: > 10 µM
[3]
  Mean Final Score: 1.7035
  Mean Kinase Statistic: -0.6710
  Mean Significance Score: 1.1411
  Mean Specificity Score: 0.5624
[4]
  IC50: > 10 µM
  no inhibition of CYP2C9 at concentrations up to: > 10 µM
[5]
  Apoptosis (cell cycle profile): 14.66%
  G2M population: 24.51%
[6]
  Mean Final Score: 1.7640
  Mean Kinase Statistic: -0.5143
  Mean Significance Score: 1.3079
  Mean Specificity Score: 0.4561
[7]
  Mean Final Score: 2.9453
  Mean Kinase Statistic: -0.8931
  Mean Significance Score: 1.7474
  Mean Specificity Score: 1.1979
[8]
  IC50: 16.8 ± 2.69 µM

## O=C(Cc1ccc(NC(=O)c2cccc(Cl)n2)cc1)NCc1ccccc1 [Compound 4n, N-(4-(2-(benzylamino)-2-oxoethyl)phenyl)-6-chloropicolinamide]
[2]
  IC50: > 10 µM
  no inhibition of CYP3A4 at concentrations up to: > 10 µM
[4]
  IC50: > 10 µM
  no inhibition of CYP2C9 at concentrations up to: > 10 µM
[8]
  IC50: 10.8 µM
